# Assay results reported in publication PMC9888480, “Carboranyl-1,8-naphthalimide intercalators induce lysosomal membrane permeabilization and ferroptosis in cancer cell lines” (Journal of Enzyme Inhibition and Medicinal Chemistry, 2023).
# Tests used:
# Format in all cases: cell-based, human
# HepG2 cells [1] = experiment: Lysosome status (acridine orange and Lysotracker Deep Red staining); details: HepG2, 3 h, total IC50 concentration (5, 4.5, 4, 4.5 µM)
# Procedure: To analyse the condition of the lysosomes, the cells (2 × 10^5) were stained with the 100 nM LysoTracker™ Deep Red (Thermo Fisher Scientific) fluorescent dye for 30 min under growth conditions. The HepG2 and MRC-5 cells were treated with the tested compounds for 3 h.Final concentration of the compounds for HepG2 cells were as follows: 34–5 µM, 35–4.5 µM, 36–4 µM, 37–4.5 µM, whereas for MRC-5 were: 34–2.1 µM, 35–2 µM, 36–2.3 µM, 37–2.3 µM. Subsequently, the cells were trypsinized, rinsed with 1 ml of DPBS (Capricorn), and then incubated with the dye. Then, cytometric analysis of the stained cells was performed at an excitation/emission wavelength of 647/668 nm.
# Lysosomal permeabilization was tested using the acridine orange (AO) dye. After treatment with the compounds, the cell pellets were suspended in 500 µl of DBPS containing AO (Sigma-Aldrich) at the final concentration of 0.5 µg/ml. […] Fluorescence intensity was analysed at an excitation wavelength of 488 nm, and two emission spectra were acquired at 505–550 and 600–650 nm for green and red fluorescence, respectively. The cells were analysed after incubation with the dye, with excitation at 488 nm, using a FACSCalibur flow cytometer (Becton Dickinson), and the data were analysed using the FlowJo software (Becton Dickinson). […]
# HepG2 cells [2] = experiment: Oxidative stress (ROS) measurement by flow cytometry (H2DCFDA); details: HepG2, 24 h, total IC50 concentration
# Procedure: The HepG2 cells were seeded (2 × 10^5 cells/well) onto 12-well plates and cultured in supplemented EMEM at 37 °C under 5% CO2 saturation until 70–80% confluency was reached. […] The intracellular ROS level was analysed by staining with H2DCFDA (ex/em: ∼492–495/517–527 nm) in accordance with the manufacturer’s protocol (Thermo Fisher Scientific, Waltham, MA, USA), wherein ROS trigger the fluorescence. The cells were separated by trypsin (Corning®) and washed twice with DPBS (1 ml, Capricorn). The pelleted cells were suspended in 0.5 ml of DPBS containing H2DCFDA at the final concentration of 0.5 µM. In order to eliminate dead cells from analysis, propidium iodide (10 µg/ml) was also added to the staining mix. The cells were then incubated at 37 °C for 30 min in the dark and then analysed with excitation at 488 nm using a FACSCalibur flow cytometer (Becton Dickinson, Franklin Lakes, NJ, USA), and the data were analysed using the FlowJo software (Becton Dickinson).
# HepG2 = experiment: In vitro cytotoxic activity, MTT assay; details: concentration required to inhibit cell growth by 50%
# Excerpt: (§1) The in vitro cytotoxic activity of the obtained carborane-1,8-naphthalimide conjugates was investigated by examining their cytotoxic effects using the MTT (3–(4,5-dimethylthiazol-2-yl)-2,5-diphenyltetrazolium bromide) dye assay[38]^,[39] against the human cancer cell line HepG2 established from hepatocellular carcinoma (for compounds 12–19 and 30–37) and against human lung fibroblasts (MRC-5) (for compounds 34–37). The IC50 values—the drug concentration (µM) required to inhibit cell growth by 50%—determined for the synthesised compounds are summarised in Table 2.
# (§2) The cytotoxic properties of the synthesised compounds were evaluated using the human hepatocellular carcinoma cell line (HepG2) and human lung fibroblasts (MRC-5). The HepG2 and MRC-5 cell lines were purchased from American Type Culture Collection (ATCC, Manassas, VA, USA). The HepG2 cells were propagated in Eagle’s minimal essential medium (EMEM, ATCC, Manassas, VA, USA), supplemented with 10% inactivated foetal bovine serum (FBS, Life Technologies, Warsaw, Poland) and 100 units/ml penicillin G with […] streptomycin (Life Technologies, Warsaw, Poland). The cells were incubated at 37 °C in a humidified atmosphere containing 5% CO2. Upon reaching 80–90% confluency, the cells were harvested with 0.25% trypsin in 1 mM EDTA (Life Technologies, Warsaw, Poland) and transferred to 96-well microplates at 2 × 10^4 cells/well. After overnight incubation of cells at 37 °C in a humidified atmosphere containing 5% CO2, the culture medium was removed and replaced with a freshly prepared solution of compounds in the culture medium or medium itself as the control group. The stock solutions of each compound were prepared in DMSO at a concentration of 100 mM and were diluted with the growth medium supplemented with 10% FBS to ensure drug dissolution to obtain concentrations ranging from 0.1 to 1000 µM. Cytotoxicity was evaluated using the MTT assay. After incubation with the compounds, the cells were treated with MTT dye solution (5 mg/ml) for 2 h and lysed with a solvent solution containing DMF (45 ml), sodium dodecylsulfate (13.5 g), and distilled water (55 ml). After overnight incubation at 37 °C, optical density at 550 nm, with a reference wavelength of 670 nm, was measured in an ELISA reader (VarioskanLux, Thermo Scientific, Waltham, MA, USA). All determinations were carried out in triplicate. Results were calculated as the percentage of control group viability. The IC50 values of the compounds were calculated in an Excel add-in ED50V10.
# MRC-5 = experiment: In vitro cytotoxic activity, MTT assay; details: concentration required to inhibit cell growth by 50%
# Excerpt: as §1, §2
Substance,AO green/red ratio (LMP) (HepG2 cells [1]),ROS generation (green fluorescence intensity) (HepG2 cells [2]),IC50 (HepG2) [nM],IC50 (MRC-5) [nM]
"4-[(6-[(1,2-Dicarba-closo-dodecaborane-1-yl)ethylamino]hexyl)amino]-N-[2-(dimethylamino)ethyl]-3-nitro-1,8-naphthalimide [Compound 34]",approximately twofold,increased approximately twofold,4780 ± 790,2130 ± 230
"4-[(6-[(1,2-Dicarba-closo-dodecaborane-1-yl)ethylamino]hexyl)amino]-3-nitro-N-[2-(N-pyrrolidinyl)ethyl]-1,8-naphthalimide [Compound 36]",–,weakest ROS inductor,3630 ± 300,2330 ± 20
"4-[(6-[(1,7-Dicarba-closo-dodecaborane-1-yl)ethylamino]hexyl)amino]-N-[2-(dimethylamino)ethyl]-3-nitro-1,8-naphthalimide [Compound 35]",approximately twofold,moderate effect,4320 ± 710,2140 ± 360
"4-[(6-[(1,7-Dicarba-closo-dodecaborane-1-yl)ethylamino]hexyl)amino]-3-nitro-N-[2-(N-pyrrolidinyl)ethyl]-1,8-naphthalimide [Compound 37]",–,increased approximately twofold,4230 ± 820,2260 ± 50
